The values that follow come from BindingDB's records for doi:10.1111/j.1747-0285.2010.00965.x (Ataturk University, 2010).

The Ki is a measure of affinity in units of concentration, obtained from inhibition or displacement.

The target in one assay is Carbonic anhydrase 1 (Homo sapiens, UniProt P00915). In words: Esterase Activity Assay. The conditions noted are these: pH 7.4; 25 °C.
For the next assay, the target named is Carbonic anhydrase 2 (Homo sapiens, UniProt P00918). In words: Esterase Activity Assay. The conditions noted are these: pH 7.4; 25 °C.

Sequence of Carbonic anhydrase 1 (P00915 whole entry): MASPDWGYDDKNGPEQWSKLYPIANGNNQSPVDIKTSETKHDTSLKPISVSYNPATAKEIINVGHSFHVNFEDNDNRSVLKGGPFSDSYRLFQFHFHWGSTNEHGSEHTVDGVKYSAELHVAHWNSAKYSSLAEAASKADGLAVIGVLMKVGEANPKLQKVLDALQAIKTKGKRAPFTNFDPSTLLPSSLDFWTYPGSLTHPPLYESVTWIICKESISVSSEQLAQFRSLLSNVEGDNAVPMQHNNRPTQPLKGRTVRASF

Turning to `O=c1c(O)c(-c2ccc(O)c(O)c2)oc2cc(O)cc(O)c12` [2-(3,4-dihydroxyphenyl)-3,5,7-trihydroxy-chromone;hydrate], the Ki on Carbonic anhydrase 1 was determined as 99 µM; at Carbonic anhydrase 2 it was 105 µM. As to `O=C(O)c1ccc(O)cc1` [4-Hydroxybenzoate, III], the Ki on Carbonic anhydrase 1 was determined as 1060 µM. That is a millimolar value.

For the molecule `O=c1oc2c(O)c(O)cc3c(=O)oc4c(O)c(O)cc1c4c23` [Elagic Acid], at Carbonic anhydrase 1, the affinity, expressed as Ki, was 207 µM.

Regarding `COc1cc(/C=C/C(=O)O)ccc1O` [Ferulic acid (M5)], the Ki was 408 µM on Carbonic anhydrase 1 and 210 µM at Carbonic anhydrase 2. For `O=C(O)c1cc(O)c(O)c(O)c1` [Gallic Acid, F], the Ki on Carbonic anhydrase 1 was 1050 µM; on Carbonic anhydrase 2, 758 µM.

With `COc1cc(C(=O)O)cc(OC)c1O` [Syringic acid], the Ki is 919 µM on Carbonic anhydrase 1 and 695 µM on Carbonic anhydrase 2. Turning to `O=C(O)/C=C/c1ccc(O)cc1` [p-Coumaric Acid], the Ki at Carbonic anhydrase 1 came to 441 µM; at Carbonic anhydrase 2, 537 µM.
